# Laboratory results taken from ChEMBL document CHEMBL3885881, “DrugMatrix”.
# Species: Rattus norvegicus
# Test: DrugMatrix - Regimen: Daily Repeat
# Assay type: toxicity, organism-based, Sprague-Dawley
# Design: regimen Daily Repeat, gender Male, age 6-8 weeks
# Conditions: in vivo, po, route oral GAVAGE, vehicle .5 % CMC; for ABSOLUTE BASOPHIL / ABSOLUTE EOSINOPHIL / ABSOLUTE LYMPHOCYTE / ABSOLUTE MONOCYTE / ABSOLUTE SEGMENTED NEUTROPHIL / BASOPHIL / EOSINOPHIL / ERYTHROCYTE COUNT / HEMATOCRIT / HEMOGLOBIN / LEUKOCYTE COUNT / LYMPHOCYTE / MEAN CORPUSCULAR HEMOGLOBIN / MEAN CORPUSCULAR HEMOGLOBIN CONCENTRATION / MEAN CORPUSCULAR VOLUME / MONOCYTE / NEUTROPHIL / NUCLEATED RED BLOOD CELLS / PLATELET COUNT: tissue Blood; for ALANINE AMINOTRANSFERASE / ALBUMIN / ALKALINE PHOSPHATASE / ASPARTATE AMINOTRANSFERASE / BLOOD UREA NITROGEN / CARBON DIOXIDE / CHLORIDE / CHOLESTEROL / CREATINE PHOSPHOKINASE / CREATININE / GLUCOSE / LACTATE DEHYDROGENASE / LIPASE / PHOSPHORUS / POTASSIUM / SODIUM / TOTAL BILIRUBIN / TOTAL PROTEIN / URIC ACID: tissue Plasma
# [1] = 0 mg/kg, 72 h, dose level Control, time 3 day
# [2] = 0 mg/kg, 120 h, dose level Control, time 5 day
# [3] = 59 mg/kg, 72 h, dose level Low, time 3 day
# [4] = 59 mg/kg, 120 h, dose level Low, time 5 day
structure (smiles),measurement,setting,value
Cc1c(-c2ccccc2)oc2c(C(=O)OCCN3CCCCC3)cccc2c1=O [FLAVOXATE],ABSOLUTE BASOPHIL,[1],0 CELLS/uL
same,ABSOLUTE EOSINOPHIL,[1],32.5 CELLS/uL
same,ABSOLUTE LYMPHOCYTE,[1],13494.17 CELLS/uL
same,ABSOLUTE MONOCYTE,[1],474 CELLS/uL
same,ABSOLUTE SEGMENTED NEUTROPHIL,[1],1932.67 CELLS/uL
same,BASOPHIL,[1],0%
same,EOSINOPHIL,[1],0.17%
same,ERYTHROCYTE COUNT,[1],5.45 x10E6/uL
same,HEMATOCRIT,[1],34.32%
same,HEMOGLOBIN,[1],13.82 G/DL
same,LEUKOCYTE COUNT,[1],15.93 x10E3/uL
same,LYMPHOCYTE,[1],84.83%
same,MEAN CORPUSCULAR HEMOGLOBIN,[1],25.38 pg
same,MEAN CORPUSCULAR HEMOGLOBIN CONCENTRATION,[1],40.27 G/DL
same,MEAN CORPUSCULAR VOLUME,[1],63.05 fL
same,MONOCYTE,[1],3%
same,NEUTROPHIL,[1],12%
same,NUCLEATED RED BLOOD CELLS,[1],0.67 /100WBC
same,PLATELET COUNT,[1],1188.5 x10E3/uL
same,ALANINE AMINOTRANSFERASE,[1],54.83 u/L
same,ALBUMIN,[1],4.22 G/DL
same,ALKALINE PHOSPHATASE,[1],427.67 u/L
same,ASPARTATE AMINOTRANSFERASE,[1],86.5 u/L
same,BLOOD UREA NITROGEN,[1],15.33 mg/dL
same,CARBON DIOXIDE,[1],24.83 mmol/L
same,CHLORIDE,[1],102.33 MEQ/L
same,CHOLESTEROL,[1],71.67 mg/dL
same,CREATINE PHOSPHOKINASE,[1],442.5 u/L
same,CREATININE,[1],0.19 mg/dL
same,GLUCOSE,[1],160.67 mg/dL
same,LACTATE DEHYDROGENASE,[1],236.5 u/L
same,LIPASE,[1],9 u/L
same,PHOSPHORUS,[1],11.97 mg/dL
same,POTASSIUM,[1],6.2 MEQ/L
same,SODIUM,[1],142.85 MEQ/L
same,TOTAL BILIRUBIN,[1],0.2 mg/dL
same,TOTAL PROTEIN,[1],5.8 G/DL
same,URIC ACID,[1],1.3 mg/dL
same,ABSOLUTE BASOPHIL,[2],0 CELLS/uL
same,ABSOLUTE EOSINOPHIL,[2],114.5 CELLS/uL
same,ABSOLUTE LYMPHOCYTE,[2],14614 CELLS/uL
same,ABSOLUTE MONOCYTE,[2],173 CELLS/uL
same,ABSOLUTE SEGMENTED NEUTROPHIL,[2],1048.5 CELLS/uL
same,BASOPHIL,[2],0%
same,EOSINOPHIL,[2],0.67%
same,ERYTHROCYTE COUNT,[2],5.66 x10E6/uL
same,HEMATOCRIT,[2],35.52%
same,HEMOGLOBIN,[2],14.27 G/DL
same,LEUKOCYTE COUNT,[2],15.95 x10E3/uL
same,LYMPHOCYTE,[2],91.33%
same,MEAN CORPUSCULAR HEMOGLOBIN,[2],25.23 pg
same,MEAN CORPUSCULAR HEMOGLOBIN CONCENTRATION,[2],40.2 G/DL
same,MEAN CORPUSCULAR VOLUME,[2],62.7 fL
same,MONOCYTE,[2],1.17%
same,NEUTROPHIL,[2],6.83%
same,NUCLEATED RED BLOOD CELLS,[2],0.33 /100WBC
same,PLATELET COUNT,[2],1229 x10E3/uL
same,ALANINE AMINOTRANSFERASE,[2],58.67 u/L
same,ALBUMIN,[2],4.32 G/DL
same,ALKALINE PHOSPHATASE,[2],382.5 u/L
same,ASPARTATE AMINOTRANSFERASE,[2],81.67 u/L
same,BLOOD UREA NITROGEN,[2],17.67 mg/dL
same,CARBON DIOXIDE,[2],27.17 mmol/L
same,CHLORIDE,[2],102.33 MEQ/L
same,CHOLESTEROL,[2],63.67 mg/dL
same,CREATINE PHOSPHOKINASE,[2],227.67 u/L
same,CREATININE,[2],0.23 mg/dL
same,GLUCOSE,[2],155.33 mg/dL
same,LACTATE DEHYDROGENASE,[2],146.5 u/L
same,LIPASE,[2],10.67 u/L
same,PHOSPHORUS,[2],11.93 mg/dL
same,POTASSIUM,[2],6.85 MEQ/L
same,SODIUM,[2],143.95 MEQ/L
same,TOTAL BILIRUBIN,[2],0.18 mg/dL
same,TOTAL PROTEIN,[2],6.02 G/DL
same,URIC ACID,[2],1.63 mg/dL
same,ABSOLUTE BASOPHIL,[3],0 CELLS/uL
same,ABSOLUTE EOSINOPHIL,[3],0 CELLS/uL
same,ABSOLUTE LYMPHOCYTE,[3],10292.33 CELLS/uL
same,ABSOLUTE MONOCYTE,[3],303.67 CELLS/uL
same,ABSOLUTE SEGMENTED NEUTROPHIL,[3],1637.33 CELLS/uL
same,BASOPHIL,[3],0%
same,EOSINOPHIL,[3],0%
same,ERYTHROCYTE COUNT,[3],5.31 x10E6/uL
same,HEMATOCRIT,[3],32.77%
same,HEMOGLOBIN,[3],12.9 G/DL
same,LEUKOCYTE COUNT,[3],12.23 x10E3/uL
same,LYMPHOCYTE,[3],84%
same,MEAN CORPUSCULAR HEMOGLOBIN,[3],24.3 pg
same,MEAN CORPUSCULAR HEMOGLOBIN CONCENTRATION,[3],39.4 G/DL
same,MEAN CORPUSCULAR VOLUME,[3],61.7 fL
same,MONOCYTE,[3],2.67%
same,NEUTROPHIL,[3],13.33%
same,NUCLEATED RED BLOOD CELLS,[3],0.33 /100WBC
same,PLATELET COUNT,[3],1448 x10E3/uL
same,ALANINE AMINOTRANSFERASE,[3],51.33 u/L
same,ALBUMIN,[3],4.17 G/DL
same,ALKALINE PHOSPHATASE,[3],336.67 u/L
same,ASPARTATE AMINOTRANSFERASE,[3],71.67 u/L
same,BLOOD UREA NITROGEN,[3],15 mg/dL
same,CARBON DIOXIDE,[3],24.33 mmol/L
same,CHLORIDE,[3],101.67 MEQ/L
same,CHOLESTEROL,[3],85.67 mg/dL
same,CREATINE PHOSPHOKINASE,[3],168.33 u/L
same,CREATININE,[3],0.14 mg/dL
same,GLUCOSE,[3],167.33 mg/dL
same,LACTATE DEHYDROGENASE,[3],73.67 u/L
same,LIPASE,[3],9.67 u/L
same,PHOSPHORUS,[3],13.13 mg/dL
same,POTASSIUM,[3],6.68 MEQ/L
same,SODIUM,[3],144.33 MEQ/L
same,TOTAL BILIRUBIN,[3],0.2 mg/dL
same,TOTAL PROTEIN,[3],5.6 G/DL
same,URIC ACID,[3],1.77 mg/dL
same,ABSOLUTE BASOPHIL,[4],0 CELLS/uL
same,ABSOLUTE EOSINOPHIL,[4],0 CELLS/uL
same,ABSOLUTE LYMPHOCYTE,[4],14413.67 CELLS/uL
same,ABSOLUTE MONOCYTE,[4],41.67 CELLS/uL
same,ABSOLUTE SEGMENTED NEUTROPHIL,[4],1278 CELLS/uL
same,BASOPHIL,[4],0%
same,EOSINOPHIL,[4],0%
same,ERYTHROCYTE COUNT,[4],5.45 x10E6/uL
same,HEMATOCRIT,[4],34.03%
same,HEMOGLOBIN,[4],13.93 G/DL
same,LEUKOCYTE COUNT,[4],15.73 x10E3/uL
same,LYMPHOCYTE,[4],92%
same,MEAN CORPUSCULAR HEMOGLOBIN,[4],25.57 pg
same,MEAN CORPUSCULAR HEMOGLOBIN CONCENTRATION,[4],40.93 G/DL
same,MEAN CORPUSCULAR VOLUME,[4],62.5 fL
same,MONOCYTE,[4],0.33%
same,NEUTROPHIL,[4],7.67%
same,NUCLEATED RED BLOOD CELLS,[4],0 /100WBC
same,PLATELET COUNT,[4],1355 x10E3/uL
same,ALANINE AMINOTRANSFERASE,[4],45.67 u/L
same,ALBUMIN,[4],4.07 G/DL
same,ALKALINE PHOSPHATASE,[4],365.33 u/L
same,ASPARTATE AMINOTRANSFERASE,[4],71.33 u/L
same,BLOOD UREA NITROGEN,[4],16 mg/dL
same,CARBON DIOXIDE,[4],25 mmol/L
same,CHLORIDE,[4],103.33 MEQ/L
same,CHOLESTEROL,[4],77 mg/dL
same,CREATINE PHOSPHOKINASE,[4],183.67 u/L
same,CREATININE,[4],0.19 mg/dL
same,GLUCOSE,[4],155.67 mg/dL
same,LACTATE DEHYDROGENASE,[4],161.33 u/L
same,LIPASE,[4],9.67 u/L
same,PHOSPHORUS,[4],12.93 mg/dL
same,POTASSIUM,[4],6.66 MEQ/L
same,SODIUM,[4],145.6 MEQ/L
same,TOTAL BILIRUBIN,[4],0.17 mg/dL
same,TOTAL PROTEIN,[4],5.8 G/DL
same,URIC ACID,[4],1.4 mg/dL
